Measured values as given in PubChem BioAssay AID330 (DTP/NCI, 2004).
Values joined by “and” are separate entries in the source; they are usually repeats but may differ in a detail not shown here. Equal values may be shown once. Toxic doses and inconclusive results are not listed. Rule for the calls: active = survival T/C of 150% or more; inactive = T/C below 125% in these data.

Tested on: P388 leukemia ip, CD2F1 mice, survival T/C
Test: NCI In Vivo Anticancer Drug Screen. Data for tumor model P388 Leukemia (intraperitoneal) in CD2F1 (CDF1) mice
Conditions: endpoint: median survival time, higher = longer survival
Outline: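 Mice carrying the transplanted tumor received test compound or vehicle. Survival was recorded in each group, and the value is the treated-group measurement divided by that of the vehicle-treated control group.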

[1] = dose: 100.0 mg/kg/injection, schedule: Q04DX003 (ip), vehicle: Klucel (hydroxypropylcellulose) (HPC)
[2] = dose: 200.0 mg/kg/injection, schedule: Q04DX003 (ip), vehicle: Klucel (hydroxypropylcellulose) (HPC)
[3] = dose: 50.0 mg/kg/injection, schedule: Q01DX005 (ip), vehicle: saline with Tween-80
[4] = dose: 100.0 mg/kg/injection, schedule: Q01DX005 (ip), vehicle: saline with Tween-80
[5] = dose: 200.0 mg/kg/injection, schedule: Q01DX005 (ip), vehicle: saline with Tween-80
[6] = dose: 100.0 mg/kg/injection, schedule: Q04DX003 (ip), vehicle: saline with Tween-80
[7] = dose: 200.0 mg/kg/injection, schedule: Q01DX009 (ip), vehicle: saline with Tween-80
[8] = dose: 50.0 mg/kg/injection, schedule: Q01DX009 (ip), vehicle: saline with Tween-80
[9] = dose: 100.0 mg/kg/injection, schedule: Q01DX009 (ip), vehicle: saline with Tween-80

Measured: T/C

C[n+]1ccc(Nc2ccc(O)cc2)c2ccc(Cl)cc21
inactive: dose: 12.5 mg/kg/injection, schedule: Q04DX003 (ip), vehicle: Klucel (hydroxypropylcellulose) (HPC) 100 % of control | dose: 25.0 mg/kg/injection, schedule: Q04DX003 (ip), vehicle: Klucel (hydroxypropylcellulose) (HPC) 116 % of control and 92 % of control | dose: 50.0 mg/kg/injection, schedule: Q01DX005 (ip), vehicle: saline + Tween-80 + alcohol 112 % of control | dose: 50.0 mg/kg/injection, schedule: Q04DX003 (ip), vehicle: Klucel (hydroxypropylcellulose) (HPC) 101 % of control and 95 % of control | dose: 100.0 mg/kg/injection, schedule: Q01DX005 (ip), vehicle: saline + Tween-80 + alcohol 110 % of control | [1] 109 % of control and 112 % of control | dose: 200.0 mg/kg/injection, schedule: Q01DX005 (ip), vehicle: saline + Tween-80 + alcohol 114 % of control | [2] 120 % of control and 94 % of control

CP(C)(=S)[S][Sn]([CH3])([CH3])[S]P(C)(C)=S
inactive: dose: 6.25 mg/kg/injection, schedule: Q01DX005 (ip), vehicle: Klucel (hydroxypropylcellulose) (HPC) 109 % of control and 113 % of control | dose: 12.5 mg/kg/injection, schedule: Q01DX005 (ip), vehicle: Klucel (hydroxypropylcellulose) (HPC) 108 % of control and 115 % of control and 117 % of control | dose: 25.0 mg/kg/injection, schedule: Q01DX005 (ip), vehicle: Klucel (hydroxypropylcellulose) (HPC) 105 % of control and 106 % of control and 122 % of control

O=c1ccc2ccc3[nH]onc3c2c1
inactive: [3] 100 % of control | [4] 93 % of control | [5] 88 % of control

Cc1ccccc1NC(=O)CCC(=O)NS(C)(=O)=O
inactive: dose: 100.0 mg/kg/injection, schedule: Q01DX001 (ip), vehicle: saline with Tween-80 102 % of control | dose: 200.0 mg/kg/injection, schedule: Q01DX001 (ip), vehicle: saline with Tween-80 95 % of control | dose: 400.0 mg/kg/injection, schedule: Q01DX001 (ip), vehicle: saline with Tween-80 95 % of control

O=C1CS/C(=N/N=C/c2nc3ccccc3c(=O)n2-c2ccc(Cl)cc2)N1c1ccccc1
inactive: [5] 88 % of control

Cc1c(Cl)cc[n+]([O-])c1C
inactive: dose: 25.0 mg/kg/injection, schedule: Q01DX009 (ip), vehicle: other 100 % of control | dose: 50.0 mg/kg/injection, schedule: Q01DX009 (ip), vehicle: other 108 % of control | dose: 100.0 mg/kg/injection, schedule: Q01DX009 (ip), vehicle: other 108 % of control | dose: 200.0 mg/kg/injection, schedule: Q01DX009 (ip), vehicle: other 107 % of control | dose: 400.0 mg/kg/injection, schedule: Q01DX009 (ip), vehicle: other 110 % of control

Cc1c2cc(Cl)ccc2c(CSC(=N)N)c2ccc3ccccc3c12
inactive: dose: 50.0 mg/kg/injection, schedule: Q04DX002 (ip), vehicle: Klucel (hydroxypropylcellulose) (HPC) 100 % of control | dose: 100.0 mg/kg/injection, schedule: Q04DX002 (ip), vehicle: Klucel (hydroxypropylcellulose) (HPC) 102 % of control | dose: 200.0 mg/kg/injection, schedule: Q04DX002 (ip), vehicle: Klucel (hydroxypropylcellulose) (HPC) 107 % of control

Cc1cc(-c2ccccc2)c2ccccc2c1N(CC(=O)O)S(=O)(=O)c1ccccc1
inactive: [6] 100 % of control | [7] 115 % of control | dose: 200.0 mg/kg/injection, schedule: Q04DX003 (ip), vehicle: saline with Tween-80 100 % of control | dose: 400.0 mg/kg/injection, schedule: Q04DX003 (ip), vehicle: saline with Tween-80 90 % of control

CCCCC[C@@H]1CCCC2C1CCC(CCCCCO)N2C(=O)OCC(Cl)(Cl)Cl (stereo partly specified)
inactive: [3] 100 % of control | [4] 106 % of control | [5] 100 % of control

CNC(=O)Cc1ccc2cc(OC)c(OC)cc2c1
inactive: [8] 90 % of control | [9] 95 % of control | [7] 90 % of control

CN(C)CCCNc1c2ccccc2nc2cccc([N+](=O)[O-])c12
inactive: dose: 0.03 mg/kg/injection, schedule: Q01DX009 (ip), vehicle: water 102 % of control and 108 % of control | dose: 0.06 mg/kg/injection, schedule: Q01DX009 (ip), vehicle: water 107 % of control and 115 % of control (2×) | dose: 0.13 mg/kg/injection, schedule: Q01DX009 (ip), vehicle: water 115 % of control and 120 % of control and 123 % of control | dose: 0.25 mg/kg/injection, schedule: Q01DX009 (ip), vehicle: water 107 % of control and 96 % of control | dose: 8.0 micrograms/kg/injection, schedule: Q01DX009 (ip), vehicle: saline 100 % of control | dose: 16.0 micrograms/kg/injection, schedule: Q01DX009 (ip), vehicle: saline 119 % of control | dose: 32.0 micrograms/kg/injection, schedule: Q01DX009 (ip), vehicle: saline 100 % of control | dose: 63.0 micrograms/kg/injection, schedule: Q01DX009 (ip), vehicle: saline 123 % of control | dose: 125.0 micrograms/kg/injection, schedule: Q01DX009 (ip), vehicle: saline 117 % of control | dose: 250.0 micrograms/kg/injection, schedule: Q01DX009 (ip), vehicle: saline 116 % of control

c1ccc(-n2nc3c(c2-c2cccnc2)Cc2ccccc2-3)cc1
inactive: [3] 101 % of control | [4] 100 % of control | [5] 98 % of control

Cn1cnc2c1c(=O)n(N)c(=O)n2C
inactive: dose: 60.0 mg/kg/injection, schedule: Q01DX005 (ip), vehicle: Klucel (hydroxypropylcellulose) (HPC) 102 % of control | dose: 120.0 mg/kg/injection, schedule: Q01DX005 (ip), vehicle: Klucel (hydroxypropylcellulose) (HPC) 98 % of control | dose: 240.0 mg/kg/injection, schedule: Q01DX005 (ip), vehicle: Klucel (hydroxypropylcellulose) (HPC) 92 % of control

COC(=O)C1CCCC(Sc2ccccc2)C1=O (stereo unspecified)
inactive: dose: 25.0 mg/kg/injection, schedule: Q01DX009 (ip), vehicle: saline with Tween-80 101 % of control | [8] 101 % of control | [9] 109 % of control

O=C(Nc1ccc(Cl)c(Cl)c1)N1CC=CC1
inactive: [1] 101 % of control | [2] 96 % of control | dose: 400.0 mg/kg/injection, schedule: Q04DX003 (ip), vehicle: Klucel (hydroxypropylcellulose) (HPC) 94 % of control

O=C(O)c1ccccc1C(=O)c1ccccn1
inactive: dose: 50.0 mg/kg/injection, schedule: Q01DX009 (ip), vehicle: Klucel (hydroxypropylcellulose) (HPC) 99 % of control | dose: 100.0 mg/kg/injection, schedule: Q01DX009 (ip), vehicle: Klucel (hydroxypropylcellulose) (HPC) 97 % of control | dose: 200.0 mg/kg/injection, schedule: Q01DX009 (ip), vehicle: Klucel (hydroxypropylcellulose) (HPC) 97 % of control

CCCCNC(=S)N/N=C/c1nc2ccccc2c(=O)n1-c1ccc(Br)cc1
inactive: dose: 100.0 mg/kg/injection, schedule: Q04DX002 (ip), vehicle: saline with Tween-80 98 % of control | dose: 200.0 mg/kg/injection, schedule: Q04DX002 (ip), vehicle: saline with Tween-80 89 % of control

CCOC([O-])=N/C(=N/[n+]1ccc(C)cc1)c1ccccc1
inactive: dose: 100.0 mg/kg/injection, schedule: Q04DX003 (ip), vehicle: saline 104 % of control | dose: 200.0 mg/kg/injection, schedule: Q04DX003 (ip), vehicle: saline 106 % of control

COc1ccc(C2CC(=O)N(CCCl)C(=O)C2)cc1
inactive: dose: 100.0 mg/kg/injection, schedule: Q01DX001 (ip), vehicle: suspension in saline 102 % of control | dose: 200.0 mg/kg/injection, schedule: Q01DX001 (ip), vehicle: suspension in saline 103 % of control | dose: 400.0 mg/kg/injection, schedule: Q01DX001 (ip), vehicle: suspension in saline 100 % of control

CNC(=O)Nc1nnnc2ccccc12
inactive: dose: 25.0 mg/kg/injection, schedule: Q04DX003 (ip), vehicle: saline with Tween-80 90 % of control | dose: 50.0 mg/kg/injection, schedule: Q04DX003 (ip), vehicle: saline with Tween-80 100 % of control | [6] 100 % of control
